In PMC7932537, “Quantitative profiling of protease specificity” (PLoS Computational Biology, 2021):

Key:
MMP-2 = experiment: Substrate phage display with NGS: relative probability (RP) of P3-P1' tetramer clusters; format: biochemical, human; conditions: for relative probability (RP): RP of the P3-P1' tetramer cluster contained in the hexamer, 200 nM MMP-2, 2 h, 37°C, two rounds of selection; for relative probability (RP) of matching tetramer: P3-P1' tetramer matching the MS detected MMP2 cleavage sequence, RP_above_4.5; for avg_RP: MMP2 - no binning
MMP-9 = experiment: as above; format: biochemical, human
[1] = MMP9, RP of the P3-P1' tetramer contained in the hexamer substrate (substrate phage display, NGS)
[2] = RP of matching tetramer, common MMP2-9 selectome
[3] = MMP9, RP of the P3-P1' tetramer matching the MS detected cleavage, RP above 4.7, substrate phage display with NGS
[4] = RP of matching tetramer, common MMP2-9 selectome, RP above KL threshold
[5] = MMP2, RP of matching P3-P1' tetramer, common set of MMP2-9 selectome, RP above KL threshold
[6] = MMP9, RP of matching P3-P1' tetramer, common set of MMP2-9 selectome
[7] = RP of the P3-P1' tetramer, MMP2 substrate phage display/NGS, tetramers of physiologic MEROPS substrates common to MMP2 and MMP9
[8] = RP of the P3-P1' tetramer, MMP9 substrate phage display/NGS, tetramers of physiologic MEROPS substrates common to MMP2 and MMP9
[9] = tetramer projected onto MMP-9 cleavage sites determined by Prudova et al. (2010)
[10] = average relative probability of the tetramer, redundant tetramers averaged out

PMDIHA
relative probability (RP) (MMP-2): 8.254
relative probability (RP) (MMP-9; [1]): 39.7367

PMFI
relative probability (RP) (acc.to MMP2) (MMP-2; [2]): 8.26
relative probability (RP) (MMP-9; [3]): 35.87
relative probability (RP) (acc.to MMP9) (MMP-9; [4]): 35.87

PNSM
relative probability (RP) (acc.to MMP2) (MMP-2; [5]): 14.95
relative probability (RP) of matching tetramer (MMP-2): 14.95
relative probability (RP) (acc.to MMP2) (MMP-2; [2]): 14.95
relative probability (RP) (acc.to MMP9) (MMP-9; [6]): 27.58
relative probability (RP) (MMP-9; [3]): 27.58
relative probability (RP) (acc.to MMP9) (MMP-9; [4]): 27.58

PPGA
relative probability (RP) (acc.to MMP2) (MMP-2; [7]): 0
relative probability (RP) (acc.to MMP9) (MMP-9; [8]): 0.07

PPGE
relative probability (RP) (acc.to MMP2) (MMP-2; [7]): 0
relative probability (RP) (acc.to MMP9) (MMP-9; [8]): 0.11

PPGK
relative probability (RP) (acc.to MMP2) (MMP-2; [7]): 0.14
relative probability (RP) (acc.to MMP9) (MMP-9; [8]): 0

PPGL [P3-P1' tetramer cluster]
relative probability (RP) (acc.to MMP2) (MMP-2; [7]): 24.36
relative probability (RP) (acc.to MMP9) (MMP-9; [8]): 34.4
relative probability (RP) (MMP-9; [9]): 34.4

PPGS
relative probability (RP) (acc.to MMP2) (MMP-2; [7]): 0.1
relative probability (RP) (acc.to MMP9) (MMP-9; [8]): 0.2

PPPL
relative probability (RP) (acc.to MMP2) (MMP-2; [5]): 13.03
relative probability (RP) of matching tetramer (MMP-2): 13.03
relative probability (RP) (acc.to MMP2) (MMP-2; [2]): 13.03
relative probability (RP) (acc.to MMP9) (MMP-9; [6]): 14.18
relative probability (RP) (MMP-9; [3]): 14.18
relative probability (RP) (acc.to MMP9) (MMP-9; [4]): 14.18

PQGF
relative probability (RP) (acc.to MMP2) (MMP-2; [7]): 27.05
relative probability (RP) (acc.to MMP9) (MMP-9; [8]): 37.1

PQGL
relative probability (RP) (acc.to MMP2) (MMP-2; [7]): 33.52
relative probability (RP) (acc.to MMP9) (MMP-9; [8]): 47.86

PQGLAG
relative probability (RP) (MMP-2): 33.5241
relative probability (RP) (MMP-9; [1]): 47.8621

PQLL
avg_RP (MMP-2; average relative probability (RP) of the P3-P1' tetramer, redundant tetramers have been averaged out): 22.6078
relative probability (RP) (acc.to MMP2) (MMP-2; [2]): 22.61
relative probability (RP) (MMP-9; [3]): 32.66
relative probability (RP) (acc.to MMP9) (MMP-9; [4]): 32.66

PQPEGL
relative probability (RP) (MMP-2): 29.5031
relative probability (RP) (MMP-9; [1]): 39.4116

PQPLDL
relative probability (RP) (MMP-2): 30.3595
relative probability (RP) (MMP-9; [1]): 47.1306

PQPSEL
relative probability (RP) (MMP-2): 31.5156
relative probability (RP) (MMP-9; [1]): 41.3266

PRAV
avg_RP (MMP-2; [10]): 28.3444
relative probability (RP) (acc.to MMP2) (MMP-2; [5]): 28.34
relative probability (RP) of matching tetramer (MMP-2): 28.34
relative probability (RP) (acc.to MMP2) (MMP-2; [2]): 28.34
relative probability (RP) (acc.to MMP9) (MMP-9; [6]): 40.85
relative probability (RP) (MMP-9; [3]): 40.85
relative probability (RP) (acc.to MMP9) (MMP-9; [4]): 40.85

PREL
relative probability (RP) (acc.to MMP2) (MMP-2; [2]): 31.95
relative probability (RP) (MMP-9; [3]): 44.67
relative probability (RP) (acc.to MMP9) (MMP-9; [4]): 44.67

PRFL
avg_RP (MMP-2; [10]): 28.4443
relative probability (RP) (acc.to MMP2) (MMP-2; [5]): 28.44
relative probability (RP) of matching tetramer (MMP-2): 28.44
relative probability (RP) (acc.to MMP2) (MMP-2; [2]): 28.44
relative probability (RP) (acc.to MMP9) (MMP-9; [6]): 42.45
relative probability (RP) (MMP-9; [3]): 42.45
relative probability (RP) (acc.to MMP9) (MMP-9; [4]): 42.45

PRGFSH
relative probability (RP) (MMP-2): 32.9171
relative probability (RP) (MMP-9; [1]): 42.5506

PRGVKG
relative probability (RP) (MMP-2): 29.4971
relative probability (RP) (MMP-9; [1]): 42.1832

PRGY
relative probability (RP) (acc.to MMP2) (MMP-2; [5]): 34.02
relative probability (RP) of matching tetramer (MMP-2): 34.02
relative probability (RP) (acc.to MMP2) (MMP-2; [2]): 34.02
relative probability (RP) (acc.to MMP9) (MMP-9; [6]): 46.79
relative probability (RP) (MMP-9; [3]): 46.79
relative probability (RP) (acc.to MMP9) (MMP-9; [4]): 46.79

PRHR
relative probability (RP) (acc.to MMP2) (MMP-2; [7]): 0.04
relative probability (RP) (acc.to MMP9) (MMP-9; [8]): 0.35

PRHS
relative probability (RP) (acc.to MMP2) (MMP-2; [5]): 13.22
relative probability (RP) of matching tetramer (MMP-2): 13.22
relative probability (RP) (acc.to MMP2) (MMP-2; [2]): 13.22
relative probability (RP) (acc.to MMP9) (MMP-9; [6]): 18.44
relative probability (RP) (MMP-9; [3]): 18.44
relative probability (RP) (acc.to MMP9) (MMP-9; [4]): 18.44

PRKQ
corresponding MMP2 relative probability (RP) (MMP-2; MMP9 tetramers from unique substrates, RP of same tetramer for MMP2): 15.8695
MMP9 relative probability (RP) (MMP-9; MMP9 tetramers from unique substrates, unrounded values): 2.4663

PRML [P3-P1' tetramer cluster]
avg_RP (MMP-2; [10]): 30.5973
relative probability (RP) (MMP-9; [9]): 42.29

PRPFHH
relative probability (RP) (MMP-2): 32.5323
relative probability (RP) (MMP-9; [1]): 43.6397

PRPL [P3-P1' tetramer cluster]
avg_RP (MMP-2; average relative probability of the P3-P1' tetramer, redundant tetramers have been averaged out): 34.3303
relative probability (RP) (MMP-9; [9]): 46.79

PRPQAA
relative probability (RP) (MMP-2): 27.2115
relative probability (RP) (MMP-9; [1]): 37.3898

PRPY
relative probability (RP) (acc.to MMP2) (MMP-2; [5]): 33.44
relative probability (RP) of matching tetramer (MMP-2): 33.44
relative probability (RP) (acc.to MMP2) (MMP-2; [2]): 33.44
relative probability (RP) (acc.to MMP9) (MMP-9; [6]): 47.69
relative probability (RP) (MMP-9; [3]): 47.69
relative probability (RP) (acc.to MMP9) (MMP-9; [4]): 47.69

PSGD
relative probability (RP) (acc.to MMP2) (MMP-2; [7]): 0.16
relative probability (RP) (acc.to MMP9) (MMP-9; [8]): 0.48

PSGK
relative probability (RP) (acc.to MMP2) (MMP-2; [7]): 2.08
relative probability (RP) (acc.to MMP9) (MMP-9; [8]): 1.08

PSGL
relative probability (RP) (acc.to MMP2) (MMP-2; [7]): 35.5
relative probability (RP) (acc.to MMP9) (MMP-9; [8]): 47.39
